We go through 1 compound from patent US20180191012A1, “AQUEOUS […]-BASED REDOX FLOW BATTERIES” (UCHICAGO ARGONNE, LLC, priority 2016, published 2018).

The conditions of this data set: 10 mM compound in 0.5 M aqueous NaCl; well-defined, reversible redox waves.

Take `c1cc[n+]2c(c1)-c1cccc[n+]1CC2` [A, N,N′-(ethan-1,2-diyl)-2,2′-bipyridinedium dibromide]: the “redox potential versus Ag/AgCl” value is recorded as −0.60 V.
